{
  "source": "patent US10280149B2",
  "about": "“Therapeutic compounds and uses thereof” (GENENTECH, INC., priority 2015, dated 2019)",
  "molecular_target": "Full length KDM2B (Homo sapiens (Human), UniProt Q8NHM5)",
  "sequence (Q8NHM5 whole entry)": "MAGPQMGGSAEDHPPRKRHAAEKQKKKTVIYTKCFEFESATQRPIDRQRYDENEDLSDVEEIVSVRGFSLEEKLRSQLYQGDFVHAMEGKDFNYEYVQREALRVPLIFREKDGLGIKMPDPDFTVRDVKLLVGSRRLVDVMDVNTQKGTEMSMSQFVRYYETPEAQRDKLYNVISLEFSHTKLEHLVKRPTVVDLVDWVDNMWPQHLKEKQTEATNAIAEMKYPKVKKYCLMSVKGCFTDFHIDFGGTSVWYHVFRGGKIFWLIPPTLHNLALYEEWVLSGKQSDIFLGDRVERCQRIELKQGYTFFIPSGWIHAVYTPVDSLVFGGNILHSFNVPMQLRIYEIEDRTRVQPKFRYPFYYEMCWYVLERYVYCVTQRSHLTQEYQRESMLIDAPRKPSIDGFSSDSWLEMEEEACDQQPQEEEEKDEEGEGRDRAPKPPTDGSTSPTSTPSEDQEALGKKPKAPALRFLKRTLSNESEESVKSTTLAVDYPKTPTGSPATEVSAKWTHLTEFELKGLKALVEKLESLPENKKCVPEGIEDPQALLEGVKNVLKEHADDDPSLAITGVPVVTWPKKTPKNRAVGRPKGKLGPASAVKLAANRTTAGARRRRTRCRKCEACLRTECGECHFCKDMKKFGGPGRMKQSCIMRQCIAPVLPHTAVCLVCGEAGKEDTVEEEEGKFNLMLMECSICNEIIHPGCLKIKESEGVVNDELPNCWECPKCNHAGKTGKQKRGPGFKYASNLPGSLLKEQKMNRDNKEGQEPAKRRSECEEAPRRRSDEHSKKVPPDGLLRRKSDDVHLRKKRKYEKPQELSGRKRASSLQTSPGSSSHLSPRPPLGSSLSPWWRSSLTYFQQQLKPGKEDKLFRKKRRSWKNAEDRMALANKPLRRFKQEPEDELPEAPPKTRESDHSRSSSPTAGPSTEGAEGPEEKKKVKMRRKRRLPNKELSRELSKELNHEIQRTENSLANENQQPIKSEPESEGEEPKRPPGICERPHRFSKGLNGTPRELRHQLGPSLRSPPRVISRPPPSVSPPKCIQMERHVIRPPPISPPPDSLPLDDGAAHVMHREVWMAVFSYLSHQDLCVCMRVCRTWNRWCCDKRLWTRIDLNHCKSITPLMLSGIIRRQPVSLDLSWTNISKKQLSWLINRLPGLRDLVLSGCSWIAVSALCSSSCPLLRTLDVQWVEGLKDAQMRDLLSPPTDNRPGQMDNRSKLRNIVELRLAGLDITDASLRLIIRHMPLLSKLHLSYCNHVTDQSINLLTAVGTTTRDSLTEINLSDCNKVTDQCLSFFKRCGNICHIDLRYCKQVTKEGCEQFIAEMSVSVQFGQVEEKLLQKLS",
  "experiment": "KDM2B TR-FRET assay for determining inhibitor IC50",
  "assay_type": "biochemical",
  "details": "TR-FRET (HTRF), biotin-H3K36me2 peptide substrate, 2-OG 0.3 μM or 6 μM",
  "from_the_text": "KDM2B TR-FRET Assay for Determining Inhibitor IC50\nThe KDM2B TR-FRET Assay described above represents an additional embodiment of the invention.",
  "note": "pIC50: −log10 of the molar value.",
  "data": [
    {"smiles": "CCCN1CCCC(C(=O)c2ccc(OC(F)(F)F)cc2)C1", "note": "(stereo not drawn) [Example 103, (1-propyl-3-piperidyl)-[4-(trifluoromethoxy)phenyl]methanone]", "values": [
      {"measurement": "pIC50", "result": 5.70}
    ]},
    {"smiles": "O=C(c1cccc(Oc2ccccc2)c1)C1CCCN(CC2CC2)C1", "note": "(stereo not drawn) [Example 21, [1-(cyclopropylmethyl)-3-piperidyl]-(3-phenoxyphenyl)methanone]", "values": [
      {"measurement": "pIC50", "result": 6.34}
    ]},
    {"smiles": "CCCN1CCCC(C(=O)c2cc(C(C)O)c3ccccc3c2)C1", "note": "(stereo not drawn) [Example 68, [4-(1-hydroxyethyl)-2-naphthyl]-(1-propyl-3-piperidyl)methanone]", "values": [
      {"measurement": "pIC50", "result": 7.12}
    ]},
    {"smiles": "CCCN1CCCC(C(=O)c2ccc(OC)cc2)C1", "note": "(stereo not drawn) [Example 97, (4-methoxyphenyl)-(1-propyl-3-piperidyl)methanone]", "values": [
      {"measurement": "pIC50", "result": 6.03}
    ]},
    {"smiles": "COc1ccc2cc(C(=O)C3CN(C4CCC4)CCC3CC(C)C)ccc2c1", "note": "(single isomer, unassigned) [Example 144b, (1-cyclobutyl-4-isobutylpiperidin-3-yl)(6-methoxynaphthalen-2-yl)methanone]", "values": [
      {"measurement": "pIC50", "result": 6.57}
    ]},
    {"smiles": "Cc1c(C#N)ccc2cc(C(=O)C3CCCN(C4CCC4)C3)ccc12", "note": "(stereo not drawn) [Example 72, 6-(1-cyclobutylpiperidine-3-carbonyl)-1-methyl-2-naphthonitrile]", "values": [
      {"measurement": "pIC50", "result": 7.06}
    ]},
    {"smiles": "COc1ccc2cc(C(=O)C3CCCN(CC4CCC4)C3)ccc2c1", "note": "(stereo not drawn) [Example 69, [1-(cyclobutylmethyl)-3-piperidyl]-(6-methoxy-2-naphthyl)methanone]", "values": [
      {"measurement": "pIC50", "result": 6.82}
    ]},
    {"smiles": "O=C(c1cc(CO)c2ccccc2c1)C1CCCN(C2CCC2)C1", "note": "(stereo not drawn) [Example 58, (1-cyclobutyl-3-piperidyl)-[4-(hydroxymethyl)-2-naphthyl]methanone]", "values": [
      {"measurement": "pIC50", "result": 7.32}
    ]},
    {"smiles": "CCCN1CCCC(C(=O)c2ccccc2-c2ccccc2)C1", "note": "(stereo not drawn) [Example 102, (2-phenylphenyl)-(1-propyl-3-piperidyl)methanone]", "values": [
      {"measurement": "pIC50", "result": 5.24}
    ]},
    {"smiles": "CCCN1CC[C@H](C)[C@@H](C(=O)c2ccc3cc(C#N)ccc3c2)C1", "note": "(stereo in doubt) [Example 163a, 6-(4-methyl-1-propylpiperidine-3-carbonyl)-2-naphthonitrile]", "values": [
      {"measurement": "pIC50", "result": 6.00}
    ]},
    {"smiles": "COc1cccc2cc(C(=O)[C@@H]3CN(CC4CC4)CC[C@@H]3C)ccc12", "note": "(single isomer, unassigned) [Example 136b, (1-(cyclopropylmethyl)-4-methylpiperidin-3-yl)(5-methoxynaphthalen-2-yl)methanone]", "values": [
      {"measurement": "pIC50", "result": 5.92}
    ]},
    {"smiles": "O=C(c1ccc(-c2ccccc2)nc1)C1CCCN(CC2CC2)C1", "note": "(stereo not drawn) [Example 36, [1-(cyclopropylmethyl)-3-piperidyl]-(6-phenyl-3-pyridyl)methanone]", "values": [
      {"measurement": "pIC50", "result": 6.27}
    ]},
    {"smiles": "COc1ccc2cc(C(=O)[C@@]3(O)CCCN(CC4CC4)C3)ccc2c1", "note": "(stereo in doubt) [Example 158a, (1-(cyclopropylmethyl)-3-hydroxypiperidin-3-yl)(6-methoxynaphthalen-2-yl)methanone]", "values": [
      {"measurement": "pIC50", "result": 5.72}
    ]},
    {"smiles": "CC1CCN(CC2CC2)CC1C(=O)c1ccc2c(O)cccc2c1", "note": "(single isomer, unassigned) [Example 151a, (1-(cyclopropylmethyl)-4-methylpiperidin-3-yl)(5-hydroxynaphthalen-2-yl)methanone]", "values": [
      {"measurement": "pIC50", "result": 6.50}
    ]},
    {"smiles": "CC(O)c1cc(C(=O)C2CCCN(C3CCC3)C2)cc2ccccc12", "note": "(stereo not drawn) [Example 64, (1-cyclobutyl-3-piperidyl)-[4-(1-hydroxyethyl)-2-naphthyl]methanone]", "values": [
      {"measurement": "pIC50", "result": 7.36}
    ]},
    {"smiles": "COc1ccc2cc(C(=O)C3CCCN(CCF)C3)ccc2c1", "note": "(stereo not drawn) [Example 79, [1-(2-fluoroethyl)-3-piperidyl]-(6-methoxy-2-naphthyl)methanone]", "values": [
      {"measurement": "pIC50", "result": 5.74}
    ]},
    {"smiles": "CCCN1CCCC(C(=O)c2ccc3cccc(C)c3c2)C1", "note": "(stereo not drawn) [Example 60, (8-methyl-2-naphthyl)-(1-propyl-3-piperidyl)methanone]", "values": [
      {"measurement": "pIC50", "result": 6.90}
    ]},
    {"smiles": "CC(O)c1cc(C(=O)C2CCCN(C3CCCC3)C2)cc2ccccc12", "note": "(stereo not drawn) [Example 63, (1-cyclopentyl-3-piperidyl)-[4-(1-hydroxyethyl)-2-naphthyl]methanone]", "values": [
      {"measurement": "pIC50", "result": 6.82}
    ]},
    {"smiles": "C[C@@H]1CCN(C2CCC2)C[C@H]1C(=O)c1ccc2cc(C#N)ccc2c1", "note": "(stereo in doubt) [Example 161b, 6-(1-cyclobutyl-4-methylpiperidine-3-carbonyl)-2-naphthonitrile]", "values": [
      {"measurement": "pIC50", "result": 7.91}
    ]},
    {"smiles": "COc1ccc2cc(C(=O)[C@H]3CN(CC4CC4)CC[C@@H]3C)ccc2c1", "note": "(single isomer, unassigned) [Example 137d, (1-(cyclopropylmethyl)-4-methylpiperidin-3-yl)(6-methoxynaphthalen-2-yl)methanone]", "values": [
      {"measurement": "pIC50", "result": 5.48}
    ]},
    {"smiles": "O=C(c1ccc2c(Oc3ccccc3)cccc2c1)C1CCCN(CC2CC2)C1", "note": "(stereo not drawn) [Example 112, (1-(cyclopropylmethyl)piperidin-3-yl)(5-phenoxynaphthalen-2-yl)methanone]", "values": [
      {"measurement": "pIC50", "result": 6.76}
    ]},
    {"smiles": "O=C(c1ccc2c(OCc3ccccc3)cccc2c1)C1CCCN(CC2CC2)C1", "note": "(stereo not drawn) [Example 123, (5-(benzyloxy)naphthalen-2-yl)(1-(cyclopropylmethyl)piperidin-3-yl)methanone]", "values": [
      {"measurement": "pIC50", "result": 7.04}
    ]},
    {"smiles": "CCCN1CCCC(C(=O)c2ccc3c(CC#N)c(OC)ccc3c2)C1", "note": "(stereo not drawn) [Example 56, 2-[2-methoxy-6-(1-propylpiperidine-3-carbonyl)-1-naphthyl]acetonitrile]", "values": [
      {"measurement": "pIC50", "result": 6.57}
    ]},
    {"smiles": "COc1ccc2cc(C(=O)[C@H]3CN(C4CCC4)CC[C@H]3C(C)C)ccc2c1CC#N", "note": "(stereo in doubt) [Example 186b, 2-(6-(1-cyclobutyl-4-isopropylpiperidine-3-carbonyl)-2-methoxynaphthalen-1-yl)acetonitrile]", "values": [
      {"measurement": "pIC50", "result": 8.67}
    ]},
    {"smiles": "O=C(c1cc(CO)c2ccccc2c1)C1CCCN(CC2CC2)C1", "note": "(stereo not drawn) [Example 35, [1-(cyclopropylmethyl)-3-piperidyl]-[4-(hydroxymethyl)-2-naphthyl]methanone]", "values": [
      {"measurement": "pIC50", "result": 6.77}
    ]},
    {"smiles": "CN(C)C(=O)c1ccc2cc(C(=O)C3CCCN(C4CCC4)C3)ccc2c1", "note": "(stereo not drawn) [Example 177, 6-(1-cyclobutylpiperidine-3-carbonyl)-N,N-dimethyl-2-naphthamide]", "values": [
      {"measurement": "pIC50", "result": 6.95}
    ]},
    {"smiles": "Cc1ccc2cc(C(=O)C3CCCN(C4CCCC4)C3)ccc2c1", "note": "(stereo not drawn) [Example 166, (1-cyclopentylpiperidin-3-yl)(6-methylnaphthalen-2-yl)methanone]", "values": [
      {"measurement": "pIC50", "result": 6.62}
    ]},
    {"smiles": "CCC[C@H]1CCN(C2CCC2)C[C@@H]1C(=O)c1ccc2cc(OC)ccc2c1", "note": "(single isomer, unassigned) [Example 140b, (1-cyclobutyl-4-propylpiperidin-3-yl)(6-methoxynaphthalen-2-yl)methanone]", "values": [
      {"measurement": "pIC50", "result": 6.48}
    ]},
    {"smiles": "COc1ccc2cc(C(=O)[C@@H]3CN(C4CCC4)CC[C@@H]3C(C)C)ccc2c1", "note": "(single isomer, unassigned) [Example 143a, (1-cyclobutyl-4-isopropylpiperidin-3-yl)(6-methoxynaphthalen-2-yl)methanone]", "values": [
      {"measurement": "pIC50", "result": 6.20}
    ]},
    {"smiles": "O=C(c1ccc(Cl)cc1)[C@@H]1CCCN(CC2CC2)C1", "note": "(stereo in doubt) [Example 116a, (4-chlorophenyl)(1-(cyclopropylmethyl)piperidin-3-yl)methanone]", "values": [
      {"measurement": "pIC50", "result": 5.24}
    ]},
    {"smiles": "CNC(=O)c1cc(C(=O)C2CCCN(C3CCCC3)C2)cc2ccccc12", "note": "(stereo not drawn) [Example 41, 3-(1-cyclopentylpiperidine-3-carbonyl)-N-methyl-naphthalene-1-carboxamide]", "values": [
      {"measurement": "pIC50", "result": 6.15}
    ]},
    {"smiles": "CN(C)C(=O)c1ccc2cc(C(=O)C3CCCN(C4CCCC4)C3)ccc2c1", "note": "(stereo not drawn) [Example 178]", "values": [
      {"measurement": "pIC50", "result": 6.73}
    ]},
    {"smiles": "CCN1CCCC(C(=O)c2ccc3cc(OC)ccc3c2)C1", "note": "(stereo not drawn) [Example 74, (1-ethyl-3-piperidyl)-(6-methoxy-2-naphthyl)methanone]", "values": [
      {"measurement": "pIC50", "result": 5.94}
    ]}
  ]
}
